From ChEMBL document CHEMBL5120879, “Medicinal Chemistry Strategies for the Development of Bruton's Tyrosine Kinase Inhibitors against Resistance” (J Med Chem, 2022)
pIC50: −log10 of the molar value. Values belong to the molecule of their own block, whether it stands above or below them.

Experiments:
[1] = target: T1, Tyrosine-protein kinase BTK (Homo sapiens, UniProt Q06187); assay: Inhibition of wild-type BTK (unknown origin)
[2] = target: T2, Tyrosine-protein kinase BTK (Homo sapiens, UniProt Q06187, C481S); assay: Inhibition of BTK C481S mutant (unknown origin)
T2 sequence (Q06187 2-659 C481S limits assumed): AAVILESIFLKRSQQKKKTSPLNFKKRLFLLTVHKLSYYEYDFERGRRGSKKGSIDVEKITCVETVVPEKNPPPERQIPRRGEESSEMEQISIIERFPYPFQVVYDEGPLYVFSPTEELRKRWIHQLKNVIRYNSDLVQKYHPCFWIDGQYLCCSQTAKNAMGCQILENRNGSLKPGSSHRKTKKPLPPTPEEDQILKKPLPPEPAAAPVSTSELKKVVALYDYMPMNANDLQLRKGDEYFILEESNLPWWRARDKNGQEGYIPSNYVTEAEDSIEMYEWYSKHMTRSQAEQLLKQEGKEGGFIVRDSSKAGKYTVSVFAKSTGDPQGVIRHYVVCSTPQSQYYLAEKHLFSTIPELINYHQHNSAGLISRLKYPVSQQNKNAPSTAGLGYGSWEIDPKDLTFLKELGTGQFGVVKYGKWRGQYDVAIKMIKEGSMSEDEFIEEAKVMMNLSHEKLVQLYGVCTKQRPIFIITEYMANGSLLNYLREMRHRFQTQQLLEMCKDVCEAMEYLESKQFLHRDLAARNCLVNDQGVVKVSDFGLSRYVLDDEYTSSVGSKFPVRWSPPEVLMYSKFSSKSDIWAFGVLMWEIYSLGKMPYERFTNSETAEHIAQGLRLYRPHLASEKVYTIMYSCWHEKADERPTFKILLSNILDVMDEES

[3] = target: von Hippel-Lindau disease tumor suppressor/Tyrosine-protein kinase BTK (Homo sapiens, UniProt Q06187+P40337); assay: PROTAC activity at VHL/BTK (unknown origin) assessed as induction of BTK degradation; type: protein assay
von Hippel-Lindau disease tumor suppressor/Tyrosine-protein kinase BTK, sequence (Q06187 whole entry): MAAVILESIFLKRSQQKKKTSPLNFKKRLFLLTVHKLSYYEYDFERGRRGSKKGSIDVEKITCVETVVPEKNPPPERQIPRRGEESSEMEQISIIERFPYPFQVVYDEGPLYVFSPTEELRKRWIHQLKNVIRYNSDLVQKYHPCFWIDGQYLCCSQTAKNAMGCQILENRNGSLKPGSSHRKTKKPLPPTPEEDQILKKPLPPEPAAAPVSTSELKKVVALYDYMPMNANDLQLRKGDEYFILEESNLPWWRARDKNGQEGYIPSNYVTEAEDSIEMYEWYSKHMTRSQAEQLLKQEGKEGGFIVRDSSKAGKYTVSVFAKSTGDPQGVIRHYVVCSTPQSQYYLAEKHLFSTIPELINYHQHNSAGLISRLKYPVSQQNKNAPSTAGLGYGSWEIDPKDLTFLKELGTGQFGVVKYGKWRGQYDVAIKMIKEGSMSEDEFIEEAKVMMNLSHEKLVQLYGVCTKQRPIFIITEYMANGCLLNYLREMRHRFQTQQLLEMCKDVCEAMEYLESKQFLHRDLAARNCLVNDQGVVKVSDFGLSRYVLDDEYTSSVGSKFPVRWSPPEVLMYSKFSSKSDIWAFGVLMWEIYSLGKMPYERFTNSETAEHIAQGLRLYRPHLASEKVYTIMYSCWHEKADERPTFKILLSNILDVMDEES
von Hippel-Lindau disease tumor suppressor/Tyrosine-protein kinase BTK, sequence (P40337 whole entry): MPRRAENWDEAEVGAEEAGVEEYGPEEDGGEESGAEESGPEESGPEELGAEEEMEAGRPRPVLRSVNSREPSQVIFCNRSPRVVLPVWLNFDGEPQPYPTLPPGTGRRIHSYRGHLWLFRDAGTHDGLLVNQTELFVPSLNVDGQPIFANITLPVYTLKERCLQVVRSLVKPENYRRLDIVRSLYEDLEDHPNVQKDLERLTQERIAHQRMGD

[4] = target: Protein cereblon/Tyrosine-protein kinase BTK (Homo sapiens, UniProt Q06187+Q96SW2); assay: PROTAC activity at CRBN/BTK (unknown origin) assessed as BTK degradation; type: protein assay
Protein cereblon/Tyrosine-protein kinase BTK, sequence (Q06187 whole entry): as the sequence (Q06187 whole entry) above
Protein cereblon/Tyrosine-protein kinase BTK, sequence (Q96SW2 whole entry): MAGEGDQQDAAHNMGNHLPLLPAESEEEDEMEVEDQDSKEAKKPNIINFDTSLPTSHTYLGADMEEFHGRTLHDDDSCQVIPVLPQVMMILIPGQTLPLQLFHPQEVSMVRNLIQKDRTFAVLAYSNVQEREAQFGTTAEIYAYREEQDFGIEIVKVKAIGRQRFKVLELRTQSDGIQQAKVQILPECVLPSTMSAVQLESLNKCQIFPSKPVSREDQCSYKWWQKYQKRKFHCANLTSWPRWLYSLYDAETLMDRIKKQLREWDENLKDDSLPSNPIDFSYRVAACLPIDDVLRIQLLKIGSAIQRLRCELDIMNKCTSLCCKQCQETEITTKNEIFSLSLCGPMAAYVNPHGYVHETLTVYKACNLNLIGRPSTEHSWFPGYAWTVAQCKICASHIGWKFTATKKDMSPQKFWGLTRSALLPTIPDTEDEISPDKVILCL

[5] = target: T1, Tyrosine-protein kinase BTK; assay: Induction of degradation of BTK in human Ramos cells at 10 nM relative to control; type: cell-based
[6] = target: T1, Tyrosine-protein kinase BTK; assay: Induction of degradation of BTK in human Ramos cells at 100 nM relative to control; type: cell-based
[7] = Inhibition of cell proliferation in human HBL1 cells harboring Ibrutinib-resistant BTK C481S mutant assessed as cell growth inhibition; type: functional
[8] = target: T2, Tyrosine-protein kinase BTK; assay: Induction of degradation of Ibrutinib-resistant BTK C481S mutant (unknown origin)
[9] = Intrinsic clearance in mouse; type: ADME, organism-based; settings: in vivo
[10] = target: T1, Tyrosine-protein kinase BTK; assay: Inhibition of BTK (unknown origin)
[11] = Inhibition of BTK C481Y mutant (unknown origin); set-up: species or system Homo sapiens

T1 sequence (Q06187 whole entry): as the sequence (Q06187 whole entry) above

SMILES: O=C(c1ccc(Oc2ccccc2)cc1Cl)c1c[nH]c2ncnc(N[C@H]3CCC[C@H](CO)O3)c12
pIC50 [1]: 9.07
pIC50 [2]: 9.41

SMILES: Nc1ncnc2c1c(-c1ccc(Oc3ccccc3)cc1)nn2C1CCN(CCOCCOCCOc2ccc3c(c2)CN(C2CCC(=O)NC2=O)C3=O)CC1 (stereo not drawn)
DC50 [3]: 7.9 nM

SMILES: COc1cc(Nc2c(C#N)cnc3cc(OCCCN4CCN(CCOCCOCCNc5cccc6c5C(=O)N(C5CCC(=O)NC5=O)C6=O)CC4)c(OC)cc23)c(Cl)cc1Cl (stereo not drawn)
DC50 [8]: 30 nM

SMILES: Cc1cc(C(N)=O)c2[nH]c3cc(C(C)(C)O)ccc3c2c1-c1cccc(-n2c(=O)[nH]c3c(F)cccc3c2=O)c1O
pIC50 [10]: 9.52

SMILES: Nc1nccn2c([C@@H]3CC[C@H]4CN(CCO)CC(=O)N4C3)nc(-c3ccc(C(=O)Nc4cc(C(F)(F)F)ccn4)cc3)c12
pIC50 [11]: 10.00

Now from value to molecule, other results behind:

DC50 [4]: 6.3 nM
Activity [5]: 73%
Activity [6]: 89%
SMILES: Nc1ncnc2c1c(-c1ccc(Oc3ccccc3)cc1)nn2[C@@H]1CCCN(C(=O)c2cn(CCOCCOCCOCCNc3cccc4c3C(=O)N(C3CCC(=O)NC3=O)C4=O)nn2)C1 (stereo partly drawn)
GI50 [7]: 28 nM

CLint scaled [9]: 1660 mL/min/kg
SMILES: Nc1ncnc2c1c(-c1ccc(Oc3ccccc3)cc1)nn2C1CCN(CCOCCOCC(=O)Nc2ccc3c(c2)C(=O)N(C2CCC(=O)NC2=O)C3=O)CC1 (stereo not drawn)

DC50 [4]: 29 nM
SMILES: Nc1ncnc2c1c(-c1ccc(Oc3ccccc3)cc1)nn2[C@@H]1CCCN(Cc2cn(CCOCCOCCOCCNc3cccc4c3CN(C3CCC(=O)NC3=O)C4=O)nn2)C1 (stereo partly drawn)
GI50 [7]: 30 nM
